In US7939536B2, “Pyrimidinylisoxazole derivatives” (Aska Pharmaceutical Co., Ltd., priority 2004, dated 2011):

Assay: Measurement of the compounds' metabolic rate (human liver S9)
Assay type: in vitro ADME
Conditions: human liver S9 0.5 mg protein/mL, NADPH generating system, 1 μmol/L test compound, 37° C. for 5 minutes, LC/MS/MS
Description: (2) Measurement of the Compounds' Metabolic Rate:
Each test compound was added to potassium phosphate buffer (50 mmol/L, pH7.4) containing NADPH generating system (comprising 3.3 mmol/L MgCl2, 3.3 mmol/L glucose 6-phosphate, 1.3 mmol/L β-NADP^+ and 0.4 unit/mL glucose 6-phosphate dehydrogenase) (in which occasion the final concentration was rendered 1 μmol/L) and incubated at 37° C. for 2 minutes. After the incubation, a suspension of human liver S9(the supernatant fraction obtained by centrifuging comminuted human liver cell fluid at 9000×g) in potassium phosphate buffer was added to the system, to the final concentration of 0.5 mg protein/mL. This reaction mixture was incubated at 37° C. for 5 minutes, and to which 4 volume times the reaction mixture of acetonitrile was added, mixed, cooled with ice and centrifuged (2000×g, 10 minutes). A part of the supernatant was taken and analyzed by LC/MS/MS, to determine the remaining rate of unchanged substance in the reaction mixture. The results are shown in the following Table A, concurrently with the measured results of TNF-α production inhibition action in (1) above.

In order of rising “Metabolic rate (remaining rate of unchanged substance: %)” value:
1. O=C(Cc1ccccc1Cl)Nc1onc(-c2ccc(F)cc2)c1-c1ccncn1 [Example 5, 5-[(2-chlorophenyl)acetylamino]-3-(4-fluorophenyl)-4-(4-pyrimidinyl)isoxazole]  5.8%
2. O=C(Cc1c(F)cccc1Cl)Nc1onc(-c2ccc(F)cc2)c1-c1ccncn1 [Example 13, 5-[(2-Chloro-6-fluorophenyl)acetylamino]-3-(4-fluorophenyl)-4-(4-pyrimidinyl)isoxazole]  16.1%
3. O=C(Cc1ccccc1Cl)Nc1onc(-c2ccc(F)cc2F)c1-c1ccncn1 [Example 105, 5-[(2-Chlorophenyl)acetylamino]-3-(2,4-difluorophenyl)-4-(4-pyrimidinyl)isoxazole]  20.4%
4. Cc1cccc(-c2noc(NC(=O)Cc3ccccc3Cl)c2-c2ccncn2)c1 [Example 201, 5-[(2-Chlorophenyl)acetylamino]-3-(3-methylphenyl)-4-(4-pyrimidinyl)isoxazole]  21.2%
5. COc1ccc(-c2noc(NC(=O)Cc3ccccc3Cl)c2-c2ccncn2)c(F)c1 [Example 174, 5-[(2-Chlorophenyl)acetylamino]-3-(2-fluoro-4-methoxyphenyl)-4-(4-pyrimidinyl)isoxazole]  24.1%
6. COc1cccc(CC(=O)Nc2onc(-c3ccc(F)c(C)c3)c2-c2ccncn2)c1 [Example 253, 5-[(3-Methoxyphenyl)acetylamino]-3-(3-methyl-4-fluorophenyl)-4-(4-pyrimidinyl)isoxazole]  33.1%
7. Cc1cccc(CC(=O)Nc2onc(-c3cccc(C)c3)c2-c2ccncn2)c1 [Example 215, 3-(3-Methylphenyl)-5-[(3-methylphenyl)acetylamino]-4-(4-pyrimidinyl)isoxazole]  38.5%
8. Cc1ccc(F)c(-c2noc(NC(=O)Cc3ccccc3)c2-c2ccncn2)c1 [Example 224, 3-(2-Fluoro-5-methylphenyl)-5-(phenylacetylamino)-4-(4-pyrimidinyl)isoxazole]  39.8%
9. Cc1cccc(-c2noc(NC(=O)Cc3ccccc3Br)c2-c2ccncn2)c1 [Example 202, 5-[(2-Bromophenyl)acetylamino]-3-(3-methylphenyl)-4-(4-pyrimidinyl)isoxazole]  43.6%
10. Cc1cccc(CC(=O)Nc2onc(-c3ccc(F)cc3F)c2-c2ccncn2)c1 [Example 121, 3-(2,4-Difluorophenyl)-5-[(3-methylphenyl)acetylamino]-4-(4-pyrimidinyl)isoxazole]  46.6%
11. Cc1cc(-c2noc(NC(=O)Cc3ccccc3C)c2-c2ccncn2)ccc1F [Example 257, 3-(3-Methyl-4-fluorophenyl)-5-[(2-methylphenyl)acetylamino]-4-(4-pyrimidinyl)isoxazole]  52.6%
12. O=C(Cc1ccccc1Cl)Nc1onc(-c2ccc(Cl)cc2)c1-c1ccncn1 [Example 61, 3-(4-Chlorophenyl)-5-[(2-chlorophenyl)acetylamino]-4-(4-pyrimidinyl)-isoxazole]  53.1%
13. Cc1cccc(-c2noc(NC(=O)Cc3ccccc3C)c2-c2ccncn2)c1 [Example 214, 3-(3-Methylphenyl)-5-[(2-methylphenyl)acetylamino]-4-(4-pyrimidinyl)isoxazole]  59.9%
